System: Mesodermal stem cells C2C12
Test: Calcification of cells by bone regeneration materials (calcein fluorescence)
Type: cell-based
Conditions: C2C12 cultured for 14 days in medium for hard tissue formation containing calcein; compared with material containing no peptide
Protocol: Mesodermal stem cells C2C12 (America Type Culture Collection, CRL-1772) were cultured for 14 days, while adding the injectable bone regeneration materials prepared in Example 1 to a medium for hard tissue formation, containing calcein (fluorescent substance for calcium). The cultured osteoblasts were fixed with 2% glutaraldehyde solution. The fixed cells were treated with 1% triton X-100, and then nuclei were strained with DAPI (blue) and actins were stained with Rhodamine phalloidin (Molecular Probe, red), thus staning the cultured cells.

YGLRSKSKKFRRPDIQYPDAT (listed as Homo sapiens) [SEQ ID NO: 6]
calcification (calcium fluorescence deposited on extracellular matrixes): promotes calcification of cells

— US8546529B2, “Injectable bone regeneration gel containing bone formation enhancing peptide” (Nano Intelligent Biomedical Engineering Corporation Co., …, priority 2007, dated 2013)
